Reference: ChEMBL document CHEMBL1130196, “Selective, orally active 5-HT1D receptor agonists as potential antimigraine agents” (J Med Chem, 1997)

Assays:
[1] = target: T1, 5-hydroxytryptamine receptor 1B (Homo sapiens, UniProt P28222); experiment: Displacement of [3H]5-HT from human 5-hydroxytryptamine 1B receptor expressed in CHO cells; assay type: cell-based
[2] = target: T2, 5-hydroxytryptamine receptor 1D (Homo sapiens, UniProt P28221); experiment: Maximum stimulation of [35S]GTP-gamma-S, binding to 5-hydroxytryptamine 1D receptor relative to 5-HT; assay type: functional
[3] = target: T2, 5-hydroxytryptamine receptor 1D; experiment: Displacement of [3H]5-HT from human 5-hydroxytryptamine 1D receptor expressed in CHO cells; assay type: cell-based
[4] = target: T2, 5-hydroxytryptamine receptor 1D; experiment: Stimulation of [35S]GTP-gamma-S, binding in CHO cells expressing 5-hydroxytryptamine 1D receptor; assay type: functional, cell-based
[5] = target: T3, 5-hydroxytryptamine receptor 1A (Mus musculus, UniProt Q64264); experiment: Compound was evaluated for the affinity at 5-hydroxytryptamine 1A receptor
T3 sequence (Q64264 whole entry): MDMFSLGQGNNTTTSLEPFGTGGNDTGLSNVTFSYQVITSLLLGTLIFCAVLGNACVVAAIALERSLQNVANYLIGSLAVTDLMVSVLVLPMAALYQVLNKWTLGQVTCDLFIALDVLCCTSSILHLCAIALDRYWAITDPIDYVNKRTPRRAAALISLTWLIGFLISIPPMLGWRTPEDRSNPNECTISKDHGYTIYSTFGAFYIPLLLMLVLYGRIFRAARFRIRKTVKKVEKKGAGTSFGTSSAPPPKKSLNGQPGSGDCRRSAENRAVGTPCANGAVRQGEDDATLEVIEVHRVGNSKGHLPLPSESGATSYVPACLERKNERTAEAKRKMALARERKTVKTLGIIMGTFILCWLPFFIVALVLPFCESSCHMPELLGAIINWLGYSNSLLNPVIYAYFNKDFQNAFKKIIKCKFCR

[6] = target: 5-hydroxytryptamine receptor 1E (Homo sapiens, UniProt P28566); experiment: Compound was evaluated for the affinity at 5-hydroxytryptamine 1E receptor
[7] = target: T1, 5-hydroxytryptamine receptor 1B; experiment: Compound was evaluated for the affinity at 5-hydroxytryptamine 1B receptor
[8] = target: T2, 5-hydroxytryptamine receptor 1D; experiment: Compound was evaluated for the stimulation of [35S]GTP-gamma-S, binding in CHO cells expressing the 5-hydroxytryptamine 1D receptor.; assay type: functional, cell-based
[9] = target: T4, 5-hydroxytryptamine receptor 1F (Homo sapiens, UniProt P30939); experiment: Compound was evaluated for the affinity at 5-hydroxytryptamine 1F receptor
T4 sequence (P30939 whole entry): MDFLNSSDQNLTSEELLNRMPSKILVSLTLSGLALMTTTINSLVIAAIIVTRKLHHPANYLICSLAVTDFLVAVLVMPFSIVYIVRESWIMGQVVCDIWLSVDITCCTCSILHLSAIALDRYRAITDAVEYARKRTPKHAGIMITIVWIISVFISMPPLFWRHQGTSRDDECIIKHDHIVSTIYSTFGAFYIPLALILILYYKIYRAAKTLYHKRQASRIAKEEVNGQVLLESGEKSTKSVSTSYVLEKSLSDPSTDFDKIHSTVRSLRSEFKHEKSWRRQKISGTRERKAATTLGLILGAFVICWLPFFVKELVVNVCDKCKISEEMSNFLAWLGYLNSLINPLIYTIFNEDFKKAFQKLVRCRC

[10] = target: T2, 5-hydroxytryptamine receptor 1D; experiment: Compound was evaluated for the affinity at 5-hydroxytryptamine 1D receptor
[11] = target: 5-hydroxytryptamine receptor 2A (Homo sapiens, UniProt P28223); experiment: Compound was evaluated for the affinity at 5-hydroxytryptamine 2A receptor
[12] = target: T5, 5-hydroxytryptamine receptor 3A (Homo sapiens, UniProt P46098); experiment: Compound was evaluated for the affinity at 5-hydroxytryptamine 3 receptor
T5 sequence (P46098 whole entry): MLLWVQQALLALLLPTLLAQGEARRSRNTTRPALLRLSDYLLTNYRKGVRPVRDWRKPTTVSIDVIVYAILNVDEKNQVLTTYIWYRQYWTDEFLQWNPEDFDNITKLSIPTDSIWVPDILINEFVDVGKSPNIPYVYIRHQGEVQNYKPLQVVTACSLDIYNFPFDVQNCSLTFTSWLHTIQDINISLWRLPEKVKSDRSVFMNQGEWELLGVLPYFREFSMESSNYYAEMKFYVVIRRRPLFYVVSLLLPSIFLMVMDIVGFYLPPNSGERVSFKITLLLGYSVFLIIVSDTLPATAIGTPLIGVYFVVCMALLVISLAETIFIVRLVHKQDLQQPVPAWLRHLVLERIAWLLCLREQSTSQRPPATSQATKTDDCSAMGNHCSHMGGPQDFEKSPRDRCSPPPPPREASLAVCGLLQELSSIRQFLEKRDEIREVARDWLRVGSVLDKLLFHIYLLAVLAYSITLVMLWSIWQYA

[13] = target: T6, 5-hydroxytryptamine receptor 2C (Homo sapiens, UniProt P28335); experiment: Compound was evaluated for the affinity at 5-hydroxytryptamine 2C receptor
T6 sequence (P28335 whole entry): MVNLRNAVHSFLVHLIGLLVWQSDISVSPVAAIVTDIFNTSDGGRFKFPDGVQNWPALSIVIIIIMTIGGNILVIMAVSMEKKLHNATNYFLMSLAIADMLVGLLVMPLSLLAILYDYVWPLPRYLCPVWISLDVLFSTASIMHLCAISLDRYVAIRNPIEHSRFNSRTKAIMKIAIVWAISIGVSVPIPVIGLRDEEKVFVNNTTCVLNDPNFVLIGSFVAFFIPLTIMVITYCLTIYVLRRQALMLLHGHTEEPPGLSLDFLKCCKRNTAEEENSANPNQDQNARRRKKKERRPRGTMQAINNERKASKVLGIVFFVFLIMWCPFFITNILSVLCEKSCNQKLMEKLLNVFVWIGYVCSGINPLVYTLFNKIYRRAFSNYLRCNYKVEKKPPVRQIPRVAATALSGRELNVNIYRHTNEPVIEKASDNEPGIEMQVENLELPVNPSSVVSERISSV

T1 sequence (P28222 whole entry): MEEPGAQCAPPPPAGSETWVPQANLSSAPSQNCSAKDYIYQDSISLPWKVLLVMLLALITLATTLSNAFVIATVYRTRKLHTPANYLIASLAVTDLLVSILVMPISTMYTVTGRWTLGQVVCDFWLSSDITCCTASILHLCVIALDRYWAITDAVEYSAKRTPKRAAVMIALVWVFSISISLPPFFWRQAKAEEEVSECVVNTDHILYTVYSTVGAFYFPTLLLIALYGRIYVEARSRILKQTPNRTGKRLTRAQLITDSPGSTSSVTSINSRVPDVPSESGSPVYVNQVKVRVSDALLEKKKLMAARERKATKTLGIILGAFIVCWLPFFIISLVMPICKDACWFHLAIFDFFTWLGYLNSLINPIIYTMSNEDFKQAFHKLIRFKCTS
T2 sequence (P28221 whole entry): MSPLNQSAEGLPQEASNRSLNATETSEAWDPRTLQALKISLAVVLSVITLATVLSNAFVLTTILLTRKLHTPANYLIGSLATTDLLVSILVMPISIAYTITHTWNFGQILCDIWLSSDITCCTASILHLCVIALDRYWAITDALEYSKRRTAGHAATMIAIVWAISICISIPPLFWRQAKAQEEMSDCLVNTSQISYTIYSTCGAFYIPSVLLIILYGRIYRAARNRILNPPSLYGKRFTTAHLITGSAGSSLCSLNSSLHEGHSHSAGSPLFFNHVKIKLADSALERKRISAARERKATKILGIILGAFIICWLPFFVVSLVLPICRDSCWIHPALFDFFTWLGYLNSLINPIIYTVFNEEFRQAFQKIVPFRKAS
Sequence of 5-hydroxytryptamine receptor 1E (P28566 whole entry): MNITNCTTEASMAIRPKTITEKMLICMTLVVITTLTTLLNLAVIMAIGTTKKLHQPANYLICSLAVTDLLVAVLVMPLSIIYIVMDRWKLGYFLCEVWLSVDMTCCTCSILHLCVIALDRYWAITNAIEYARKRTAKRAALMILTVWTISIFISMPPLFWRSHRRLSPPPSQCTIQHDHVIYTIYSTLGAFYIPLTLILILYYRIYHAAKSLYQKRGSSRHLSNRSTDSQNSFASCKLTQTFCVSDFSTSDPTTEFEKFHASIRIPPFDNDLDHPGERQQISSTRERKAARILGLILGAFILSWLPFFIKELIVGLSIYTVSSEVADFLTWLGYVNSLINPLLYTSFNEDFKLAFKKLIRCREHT
Sequence of 5-hydroxytryptamine receptor 2A (P28223 whole entry): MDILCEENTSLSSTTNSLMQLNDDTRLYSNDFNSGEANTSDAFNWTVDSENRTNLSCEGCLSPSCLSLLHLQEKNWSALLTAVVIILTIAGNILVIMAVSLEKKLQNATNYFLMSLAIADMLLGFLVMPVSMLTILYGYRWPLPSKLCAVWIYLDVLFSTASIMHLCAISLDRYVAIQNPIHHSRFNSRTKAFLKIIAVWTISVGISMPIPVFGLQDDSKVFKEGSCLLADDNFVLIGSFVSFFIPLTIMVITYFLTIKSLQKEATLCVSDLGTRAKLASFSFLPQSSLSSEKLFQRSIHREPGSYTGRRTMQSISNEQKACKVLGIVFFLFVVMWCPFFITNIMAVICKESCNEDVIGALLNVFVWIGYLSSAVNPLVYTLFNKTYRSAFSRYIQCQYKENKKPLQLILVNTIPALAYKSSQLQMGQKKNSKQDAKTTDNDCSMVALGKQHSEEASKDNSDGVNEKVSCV

Row | SMILES | IC50 [1] [nM] | Efficacy [2] [%] | IC50 [3] [nM] | EC50 [4] [nM] | other results
1 | Fc1ccc(CCN2CCN(CCCc3c[nH]c4ccc(-n5cnnc5)cc34)CC2)cc1F | 98 | 86 | 1 | 1.9 | 
2 | CNS(=O)(=O)Cc1ccc2[nH]cc(CCN(C)C)c2c1 |  |  |  |  | IC50 [5]: 450 nM; IC50 [6]: 2400 nM
3 | CC(=O)Nc1ccc(CCN2CCN(CCCc3c[nH]c4ccc(-n5cnnc5)cc34)CC2)cc1 | 251 | 85 | 1.3 | 1.9 | 
4 | CN1CCN(CCc2c[nH]c3ccc(-n4cnnc4)cc23)CC1 | 310 | 63 | 140 | 80 | 
5 | Fc1cccc(CCN2CCN(CCCc3c[nH]c4ccc(-n5cnnc5)cc34)CC2)c1 | 75 |  | 0.6 |  | IC50 [5]: 55 nM; IC50 [7]: 75 nM; EC50 [8]: 1.2 nM; IC50 [6]: > 10000 nM; IC50 [9]: 3800 nM; IC50 [10]: 0.6 nM; IC50 [11]: 370 nM; IC50 [12]: > 10000 nM; IC50 [13]: 9000 nM
6 | Fc1ccc(CCN2CCN(CCCc3c[nH]c4ccc(-n5cnnc5)cc34)CC2)cc1 | 120 | 81 | 0.8 | 1.5 | 
7 | CC(=O)Nc1cccc(CCN2CCN(CCCc3c[nH]c4ccc(-n5cnnc5)cc34)CC2)c1 | 170 | 96 | 1.8 | 1.6 | 
8 | c1ccc(CN2CCN(CCCc3c[nH]c4ccc(-n5cnnc5)cc34)CC2)cc1 | 8.1 | 56 | 0.2 | 0.1 | 
9 | Fc1ccccc1CCN1CCN(CCCc2c[nH]c3ccc(-n4cnnc4)cc23)CC1 | 100 | 80 | 0.6 | 1.5 | 
10 | CN1CCN(CCCc2c[nH]c3ccc(-n4cnnc4)cc23)CC1 | 430 | 104 | 35 | 53 | 
11 | c1ccc(CCN2CCN(CCCc3c[nH]c4ccc(-n5cnnc5)cc34)CC2)cc1 | 170 | 65 | 1.4 | 0.9 | 
12 | Fc1cc(F)cc(CCN2CCN(CCCc3c[nH]c4ccc(-n5cnnc5)cc34)CC2)c1 | 47 | 86 | 0.7 | 0.6 | 
13 | c1cc2[nH]cc(CCN3CCCC3)c2cc1-n1cnnc1 |  | 120 |  |  | 
